pIC50: −log10 of the molar value. In brackets after ≈: the same amount, converted by molar mass. Like-named read-outs stand apart in the source and are kept apart here.
Experiments:
[1] = Solubility measurement (DMSO solution method), McIlvaine buffer pH 4.5 or 6.8; assay type: physicochemical; conditions: aqueous buffer, kinetic from dmso stock, DMSO stock diluted to 250 μM, 24 h shaking at ambient temperature
Method in brief: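 DMSO stock diluted into McIlvaine buffer, pH 4.5 or 6.8, to 250 µM final, shaken 24 h at ambient temperature. Precipitate removed by filtration; filtrate quantified by LC-UV against a fully dissolved reference in acetonitrile/water 1:1.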

[2] = system: KRAS G12D-dependent Ba/F3 cells; assay: Ba/F3 proliferation assay, KRAS G12D; assay type: cell-based; conditions: Mus musculus, BaF3, 72 h, AlamarBlue
Method in brief: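 Viability is measured as AlamarBlue fluorescence in Ba/F3 cells that depend on a transduced mutant KRAS isoform for growth without IL-3. Each treatment is run in technical duplicate, and dose-response curves are fitted.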

KRAS (G12D)::SOS1 = KRAS (G12D)::SOS1 (Homo sapiens (Human), UniProt P01116, G12D); assay: KRAS::SOS1 AlphaScreen binding assay, KRAS G12D
Method in brief: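 KRAS 1-169 (biotinylated avi-tag) with GST-SOS1 564-1049 and 10 µM GDP in PBS/0.1% BSA/0.05% Tween 20: WT and G13D 10 nM each with 10 nM SOS1; G12D 10 nM and G12C 7.5 nM with 5 nM SOS1. After 30 min, glutathione acceptor/streptavidin donor beads were added for 60 min at RT in the dark, then AlphaScreen read; 4-parameter IC50.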

[3] = McIlvaine buffer pH 4.5, read-out: solubility pH 4.5
[4] = McIlvaine buffer pH 6.8, read-out: solubility pH 6.8

KRAS (G12D)::SOS1, sequence (P01116 other isoform, or with tags, fused parts or gaps G12D): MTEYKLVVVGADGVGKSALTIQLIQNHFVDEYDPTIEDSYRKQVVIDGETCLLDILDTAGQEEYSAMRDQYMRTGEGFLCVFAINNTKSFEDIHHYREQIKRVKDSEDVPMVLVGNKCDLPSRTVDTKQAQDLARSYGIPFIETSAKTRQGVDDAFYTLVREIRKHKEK

SMILES | solubility at 24 h [1, 3] [µg/mL] | solubility at 24 h [1, 4] [µg/mL] | pIC50 [2] | pIC50 (KRAS (G12D)::SOS1)
C[C@H](Oc1cc(-n2cc3ccn(C4CCOCC4)c(=O)c3n2)nc(-c2noc3c2CCC[C@@]32CCCc3sc(N)c(C#N)c32)n1)[C@@H]1CCCN1C [II-206] | 17 (≈ 24 µM) | 2 (≈ 2.83 µM) | 7.20 | 9.00
C[C@H](O)Cn1ncc(-c2cc(O[C@@H](C)[C@@H]3CCCN3C)nc(-c3noc4c3CCC[C@@]43CCCc4sc(N)c(C#N)c43)n2)n1 [II-134] | 116 (≈ 188 µM) | 105 (≈ 171 µM) | 5.93 | 8.40
C[C@H](Oc1cc(-n2cc3ccn([C@H]4CCOC4)c(=O)c3n2)nc(-c2noc3c2CCC[C@@]32CCCc3sc(N)c(C#N)c32)n1)[C@@H]1CCCN1C [II-202] | > 166 | 58 (≈ 83.6 µM) | 7.25 | 9.00
CC(C)[C@@H]1CN(c2cc(O[C@@H](C)[C@@H]3CCCN3C)nc(-c3noc4c3CCC[C@@]43CCCc4sc(N)c(C#N)c43)n2)CCN1 [II-166] | > 152 | > 147 | 6.81 | 9.00
C[C@H](Oc1cc(-n2cc3ccn(C[C@H]4CCOC4)c(=O)c3n2)nc(-c2noc3c2CCC[C@@]32CCCc3sc(N)c(C#N)c32)n1)[C@@H]1CCCN1C [II-204] | 4 (≈ 5.65 µM) | 5 (≈ 7.06 µM) | 7.21 | 8.70
C[C@H](Oc1cc([C@H]2CCNC2)nc(-c2noc3c2CCC[C@@]32CCCc3sc(N)c(C#N)c32)n1)[C@@H]1CCCN1C [II-163] | > 137 | > 133 | 7.01 | 9.00
C[C@H](Oc1cc(-n2ccc(-c3cnccn3)n2)nc(-c2noc3c2CCC[C@@]32CCCc3sc(N)c(C#N)c32)n1)[C@@H]1CCCN1C [II-130] | < 1 | < 1 | 7.35 | 8.70
C[C@H](Oc1cc(-n2ccc(-c3cn(C4CCOCC4)nn3)n2)nc(-c2noc3c2CCC[C@@]32CCCc3sc(N)c(C#N)c32)n1)[C@@H]1CCCN1C [II-210] | 5 (≈ 7.06 µM) | < 1 | 7.64 | 9.00
C[C@H](Oc1cc(-c2ccn([C@H]3CCOC3)n2)nc(-c2noc3c2CCC[C@@]32CCCc3sc(N)c(C#N)c32)n1)[C@@H]1CCCN1C [II-127] | > 127 | 39 (≈ 62.2 µM) | 6.96 | 8.52
C[C@H]1CNCCCN1c1nc(-c2onc3c2CCC[C@@]32CCCc3sc(N)c(C#N)c32)cc(C(F)(F)F)n1 [I-15] | 1 (≈ 1.84 µM) | < 1 | 5.95 | 6.46
C[C@@H]1CN(c2nc(-c3noc4c3CCC[C@@]43CCCc4sc(N)c(C#N)c43)nc(O[C@@H](C)[C@@H]3C[C@@H](F)CN3C)c2F)CC2(CC2)N1 [II-158] | > 150 | < 1 | 7.62 | 8.70
C[C@H](Oc1cc(-n2cc3c(n2)CN(C)C3)nc(-c2noc3c2CCC[C@@]32CCCc3sc(N)c(C#N)c32)n1)[C@@H]1CCCN1C [II-174] | > 149 | 115 (≈ 188 µM) | 7.80 | 9.00
CO[C@H]1CCN(C)[C@@H]1[C@H](C)Oc1cc(N2CCN(C)C3(CC3)C2)nc(-c2noc3c2CCC[C@@]32CCCc3sc(N)c(C#N)c32)n1 [II-186] | > 140 | 22 (≈ 34.1 µM) | 7.92 | 9.00
CO[C@H]1CCN(C)[C@@H]1[C@H](C)Oc1cc(-n2ccc(C(=O)N[C@@H]3CCOC3)n2)nc(-c2noc3c2CCC[C@@]32CCCc3sc(N)c(C#N)c32)n1 [II-197] | > 173 | 5 (≈ 7.14 µM) | 8.22 | 9.00
C[C@H](Oc1cc(-c2ccn(Cc3ncco3)n2)nc(-c2noc3c2CCC[C@@]32CCCc3sc(N)c(C#N)c32)n1)[C@@H]1CCCN1C [II-128] | > 130 | 42 (≈ 65.9 µM) | 7.08 | 8.70
C[C@H](Oc1cc(N2CCN(C)C3(CC3)C2)nc(-c2noc3c2CCC[C@@]32CCCc3sc(N)c(C#N)c32)n1)[C@@H]1C[C@@H](F)CN1C [II-149] | > 164 | < 1 | 7.74 | 9.00
CC(C)NC(=O)Cc1ccn(-c2cc(O[C@@H](C)[C@@H]3CCCN3C)nc(-c3noc4c3CCC[C@@]43CCCc4sc(N)c(C#N)c43)n2)n1 [II-182] | > 148 | 86 (≈ 131 µM) | 7.80 | 9.00

SMILES | solubility at 24 h [1, 3] [µg/mL] | solubility at 24 h [1, 4] [µg/mL] | pIC50 [2] | pIC50 (KRAS (G12D)::SOS1)
COCCNC(=O)c1ccn(-c2cc(O[C@@H](C)[C@@H]3[C@@H](OC)CCN3C)nc(-c3noc4c3CCC[C@@]43CCCc4sc(N)c(C#N)c43)n2)n1 [II-200] | > 163 | 4 (≈ 5.82 µM) | 8.10 | 9.00
COCCNC(=O)c1ccn(-c2cc(O[C@@H](C)[C@@H]3CCCN3C)nc(-c3noc4c3CCC[C@@]43CCCc4sc(N)c(C#N)c43)n2)n1 [II-195] | 131 (≈ 199 µM) | 71 (≈ 108 µM) | 7.85 | 9.00
C[C@H](Oc1cc(N2CCNC[C@@]23CCOC3)nc(-c2onc3c2CCC[C@@]32CCCc3sc(N)c(C#N)c32)n1)[C@@H]1CCCN1C [I-13] | > 148 | > 150 | 7.31 | 9.00
C[C@H](NC(=O)c1ccn(-c2cc(O[C@@H](C)[C@@H]3CCCN3C)nc(-c3noc4c3CCC[C@@]43CCCc4sc(N)c(C#N)c43)n2)n1)c1ccccn1 [II-191] | 73 (≈ 104 µM) | 12 (≈ 17 µM) | 7.96 | 9.00
C[C@H](Oc1cc(N2CCN[C@@H](C)C2)nc(-c2noc3c2CCC[C@@]32CCCc3sc(N)c(C#N)c32)n1)[C@@H]1CCCN1C [II-162] | > 140 | > 137 | 7.39 | 9.00
C[C@H](Oc1cc(-n2cncn2)nc(-c2onc3c2CCC[C@@]32CCCc3sc(N)c(C#N)c32)n1)[C@@H]1CCCN1C [I-18] | > 121 | 91 (≈ 163 µM) | 7.66 | 8.52
C[C@H](Oc1cc(-n2cc3ccn([C@@H]4CCOC4)c(=O)c3n2)nc(-c2noc3c2CCC[C@@]32CCCc3sc(N)c(C#N)c32)n1)[C@@H]1CCCN1C [II-203] | > 159 | 65 (≈ 93.7 µM) | 7.23 | 8.70
C[C@H](Oc1nc(-c2noc3c2CCC[C@@]32CCCc3sc(N)c(C#N)c32)nc(N2CCN(C)C3(CC3)C2)c1Cl)[C@@H]1C[C@@H](F)CN1C [II-176] | > 140 | < 1 | 6.95 | 8.70
CCN1CCN(c2cc(O[C@@H](C)[C@@H]3C[C@@H](F)CN3C)nc(-c3noc4c3CCC[C@@]43CCCc4sc(N)c(C#N)c43)n2)CC12CC2 [II-185] | > 147 | 8 (≈ 12.4 µM) | 7.33 | 9.00
C[C@H](Oc1cc(N2CCN(C)C3(CCOC3)C2)nc(-c2noc3c2CCC[C@@]32CCCc3sc(N)c(C#N)c32)n1)[C@@H]1C[C@@H](F)CN1C (stereo partly shown) [II-151] | > 161 | < 1 | 7.28 | 8.70
C[C@H](Oc1cc(N2CCOC2=O)nc(-c2noc3c2CCC[C@@]32CCCc3sc(N)c(C#N)c32)n1)[C@@H]1CCCN1C [II-143] | > 123 | 91 (≈ 158 µM) | 8.52 | 9.00
CO[C@@H]1C[C@@H]([C@H](C)Oc2cc(N3CCN(C)C4(CC4)C3)nc(-c3noc4c3CCC[C@@]43CCCc4sc(N)c(C#N)c43)n2)N(C)C1 [II-152] | > 132 | 61 (≈ 94.6 µM) | 7.17 | 8.52
C[C@H](Oc1cc(N2CCN(C)C3(CC3)C2)nc(-c2noc3c2CCC[C@@]32CCCc3sc(N)c(C#N)c32)n1)[C@@H]1CCCN1C [II-171] | > 150 | > 148 | 8.00 | 9.00
C[C@H](Oc1cc(-n2cc(C(=O)N(C)C)nn2)nc(-c2noc3c2CCC[C@@]32CCCc3sc(N)c(C#N)c32)n1)[C@@H]1CCCN1C [II-132] | 117 (≈ 186 µM) | 100 (≈ 159 µM) | 7.00 | 8.52
C[C@H](Oc1cc(-n2ccc(-c3cn([C@H]4CCOC4)nn3)n2)nc(-c2noc3c2CCC[C@@]32CCCc3sc(N)c(C#N)c32)n1)[C@@H]1CCCN1C [II-212] | 16 (≈ 23.1 µM) | < 1 | 8.00 | 9.00
C[C@H](Oc1cc(C2=CCNCC2)nc(-c2noc3c2CCC[C@@]32CCCc3sc(N)c(C#N)c32)n1)[C@@H]1CCCN1C [II-164] | > 164 | > 137 | 7.18 | 9.00
[2H]C([2H])([2H])N1C[C@H](F)C[C@H]1[C@H](C)Oc1cc(N2CCN(C([2H])([2H])[2H])C3(CC3)C2)nc(-c2noc3c2CCC[C@@]32CCCc3sc(N)c(C#N)c32)n1 [II-207] | > 134 | < 1 | 7.74 | 9.00

Reference: patent US20240174690A1, “ANNULATED 2-AMINO-3-CYANO THIOPHENES AND DERIVATIVES FOR THE TREATMENT OF CANCER” (BOEHRINGER INGELHEIM INTERNATIONAL GMBH, priority 2021, published 2024)
